Results taken from PubChem BioAssay (NCI).
“And” between values parts separate entries of the source, which are not always exact repeats. Identical values can stand only once.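 In this assay, cells in 96-well plates receive the compound at five concentrations for 48 hours. Endpoints are linearly interpolated between the surrounding concentrations. At the GI50, growth is halved. TGI: total growth inhibition.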

Legend:
Assay in all cases: DTP human tumour cell line panel, 48 h
COLO 205 colon = tested on: COLO 205 colon
HOP-62 NSCLC = tested on: HOP-62 NSCLC
SF-268 CNS = tested on: SF-268 CNS
UACC-62 melanoma = tested on: UACC-62 melanoma
SK-MEL-2 melanoma = tested on: SK-MEL-2 melanoma
SN12C renal = tested on: SN12C renal
A549 NSCLC = tested on: A549 NSCLC
OVCAR-4 ovarian = tested on: OVCAR-4 ovarian
NCI-H226 lung = tested on: NCI-H226 lung
LOX IMVI melanoma = tested on: LOX IMVI melanoma

## O=C(O)C1C2C=CC(O2)C1C(=O)NCc1cccnc1 (stereo not given)
COLO 205 colon
  TGI: > 100 µM
HOP-62 NSCLC
  TGI: > 100 µM
SF-268 CNS
  TGI: > 100 µM
UACC-62 melanoma
  TGI: > 100 µM
SK-MEL-2 melanoma
  TGI: > 100 µM
SN12C renal
  TGI: > 100 µM
A549 NSCLC
  TGI: > 100 µM
OVCAR-4 ovarian
  TGI: > 100 µM
NCI-H226 lung
  TGI: > 100 µM
LOX IMVI melanoma
  TGI: > 100 µM

## Cc1cc(S(=O)(=O)/N=C(\N)Nc2cccc(O)c2)c(SCc2ccccc2)cc1Cl
COLO 205 colon
  GI50: 28.8 µM
  TGI: > 100 µM
HOP-62 NSCLC
  GI50: 15.1 µM
  TGI: 31.7 µM
SF-268 CNS
  GI50: 17.4 µM
  TGI: 69 µM
UACC-62 melanoma
  GI50: 14.1 µM
  TGI: 30.2 µM
SK-MEL-2 melanoma
  GI50: 15.7 µM
  TGI: 34.9 µM
SN12C renal
  GI50: 17.6 µM
  TGI: 38.2 µM
A549 NSCLC
  GI50: 14.8 µM
  TGI: > 100 µM
OVCAR-4 ovarian
  GI50: 12.1 µM
  TGI: 45.1 µM
NCI-H226 lung
  GI50: 24 µM
  TGI: 62.3 µM
LOX IMVI melanoma
  GI50: 20.5 µM
  TGI: 66.8 µM

## CC(C)C[C@H](CC(=O)O)C(=O)N[C@@H](Cc1c[nH]c2ccccc12)C(=O)N[C@@H](C)c1ccccc1
COLO 205 colon
  GI50: > 25 µM
  TGI: > 25 µM
HOP-62 NSCLC
  GI50: > 25 µM
  TGI: > 25 µM
SF-268 CNS
  GI50: > 25 µM
  TGI: > 25 µM
UACC-62 melanoma
  GI50: > 25 µM
  TGI: > 25 µM
SK-MEL-2 melanoma
  GI50: > 25 µM
  TGI: > 25 µM
SN12C renal
  GI50: > 25 µM
  TGI: > 25 µM
A549 NSCLC
  GI50: > 25 µM
  TGI: > 25 µM
OVCAR-4 ovarian
  GI50: > 25 µM
  TGI: > 25 µM
NCI-H226 lung
  GI50: > 25 µM
  TGI: > 25 µM
LOX IMVI melanoma
  GI50: > 25 µM
  TGI: > 25 µM

## COC(=O)C(C(=O)C(=O)Nc1ccc(C)cc1)c1nc2ccc([N+](=O)[O-])cc2[nH]c1=O (stereo not given)
COLO 205 colon
  TGI: > 100 µM
HOP-62 NSCLC
  TGI: > 100 µM
SF-268 CNS
  TGI: > 100 µM
UACC-62 melanoma
  TGI: > 100 µM
SK-MEL-2 melanoma
  TGI: > 100 µM
SN12C renal
  TGI: > 100 µM
A549 NSCLC
  TGI: > 100 µM
OVCAR-4 ovarian
  TGI: > 100 µM
NCI-H226 lung
  TGI: > 100 µM
LOX IMVI melanoma
  TGI: > 100 µM

## CC[C@@]1(O)C(=O)OCc2c1cc1n(c2=O)Cc2cc3cc(Cl)ccc3nc2-1
COLO 205 colon
  GI50: 0.02 µM and 0.0458 µM
  TGI: 1.41 µM and 1.47 µM
HOP-62 NSCLC
  GI50: < 0.001 µM
SF-268 CNS
  GI50: 0.00403 µM
UACC-62 melanoma
  GI50: 0.00183 µM
SK-MEL-2 melanoma
  GI50: 0.169 µM and 0.187 µM
  TGI: 0.677 µM and 0.691 µM
SN12C renal
  GI50: 0.00207 µM
  TGI: 0.12 µM and 0.243 µM
A549 NSCLC
  GI50: 0.00656 µM
  TGI: 1.42 µM and 1.21 µM
OVCAR-4 ovarian
  GI50: 0.125 µM and 0.249 µM
NCI-H226 lung
  GI50: 0.00345 µM
  TGI: 0.108 µM and 0.117 µM
LOX IMVI melanoma
  GI50: 0.00191 µM

## O=C(Nc1ccc(OS(=O)(=O)c2ccc(F)cc2)cc1)C12CC3CC(CC(C3)C1)C2
COLO 205 colon
  GI50: 0.434 µM
  TGI: > 100 µM
HOP-62 NSCLC
  GI50: 11.3 µM
  TGI: 30.6 µM
SF-268 CNS
  GI50: 19.8 µM
  TGI: > 100 µM
UACC-62 melanoma
  GI50: 6.44 µM
  TGI: > 65 µM
SK-MEL-2 melanoma
  GI50: 12.9 µM
  TGI: 39.3 µM
SN12C renal
  GI50: > 43.6 µM
  TGI: > 100 µM
A549 NSCLC
  GI50: 5.25 µM
  TGI: > 100 µM
OVCAR-4 ovarian
  GI50: 4.38 µM
  TGI: 37.7 µM
NCI-H226 lung
  GI50: 15 µM
  TGI: > 79.3 µM
LOX IMVI melanoma
  GI50: > 27.5 µM
  TGI: > 100 µM

## CNC(=O)c1cc(Oc2ccc3nc(NC(=O)Nc4ccc(CN5CCOCC5)c(C(F)(F)F)c4)sc3c2)ccn1
COLO 205 colon
  GI50: 2.1 µM
  TGI: 4.58 µM
HOP-62 NSCLC
  GI50: 2.82 µM
  TGI: 10.1 µM
SF-268 CNS
  GI50: 3.22 µM
  TGI: 14.6 µM
UACC-62 melanoma
  GI50: 1.44 µM
  TGI: 4.58 µM
SK-MEL-2 melanoma
  GI50: 2.74 µM
  TGI: 7.81 µM
SN12C renal
  GI50: 2.58 µM
  TGI: 9.36 µM
A549 NSCLC
  GI50: 2.15 µM
  TGI: 5.86 µM
OVCAR-4 ovarian
  GI50: 1.72 µM
  TGI: 5.64 µM
NCI-H226 lung
  GI50: 1.73 µM
  TGI: 4.3 µM
LOX IMVI melanoma
  GI50: 1.82 µM
  TGI: 4.34 µM
